Source: publication PMC4035429 (Neuroscience, 2014)

What was measured:
[1] = molecular target: LRP1 (Rattus norvegicus, UniProt G3V928); test: Aβ efflux through Z310 monolayer with LRP1 inhibition; format: cell-based; details: mean±SD
[2] = system: Aβ; details: ref Kanekiyo and Bu, 2009; cited from earlier work
[3] = system: LRP1; test: LRP1 knockdown efficiency in Z310 cells by Western blot; format: cell-based, rat; details: 10nM siRNA, LRP1 to β-actin ratio
[4] = system: Z310 cells
[5] = LRP1 knockdown by siRNA plus 10mg/ml IVIG, p<0.001, n=3

Chain of LRP1 (Rattus norvegicus, UniProt G3V928) (G3V928 20-4545): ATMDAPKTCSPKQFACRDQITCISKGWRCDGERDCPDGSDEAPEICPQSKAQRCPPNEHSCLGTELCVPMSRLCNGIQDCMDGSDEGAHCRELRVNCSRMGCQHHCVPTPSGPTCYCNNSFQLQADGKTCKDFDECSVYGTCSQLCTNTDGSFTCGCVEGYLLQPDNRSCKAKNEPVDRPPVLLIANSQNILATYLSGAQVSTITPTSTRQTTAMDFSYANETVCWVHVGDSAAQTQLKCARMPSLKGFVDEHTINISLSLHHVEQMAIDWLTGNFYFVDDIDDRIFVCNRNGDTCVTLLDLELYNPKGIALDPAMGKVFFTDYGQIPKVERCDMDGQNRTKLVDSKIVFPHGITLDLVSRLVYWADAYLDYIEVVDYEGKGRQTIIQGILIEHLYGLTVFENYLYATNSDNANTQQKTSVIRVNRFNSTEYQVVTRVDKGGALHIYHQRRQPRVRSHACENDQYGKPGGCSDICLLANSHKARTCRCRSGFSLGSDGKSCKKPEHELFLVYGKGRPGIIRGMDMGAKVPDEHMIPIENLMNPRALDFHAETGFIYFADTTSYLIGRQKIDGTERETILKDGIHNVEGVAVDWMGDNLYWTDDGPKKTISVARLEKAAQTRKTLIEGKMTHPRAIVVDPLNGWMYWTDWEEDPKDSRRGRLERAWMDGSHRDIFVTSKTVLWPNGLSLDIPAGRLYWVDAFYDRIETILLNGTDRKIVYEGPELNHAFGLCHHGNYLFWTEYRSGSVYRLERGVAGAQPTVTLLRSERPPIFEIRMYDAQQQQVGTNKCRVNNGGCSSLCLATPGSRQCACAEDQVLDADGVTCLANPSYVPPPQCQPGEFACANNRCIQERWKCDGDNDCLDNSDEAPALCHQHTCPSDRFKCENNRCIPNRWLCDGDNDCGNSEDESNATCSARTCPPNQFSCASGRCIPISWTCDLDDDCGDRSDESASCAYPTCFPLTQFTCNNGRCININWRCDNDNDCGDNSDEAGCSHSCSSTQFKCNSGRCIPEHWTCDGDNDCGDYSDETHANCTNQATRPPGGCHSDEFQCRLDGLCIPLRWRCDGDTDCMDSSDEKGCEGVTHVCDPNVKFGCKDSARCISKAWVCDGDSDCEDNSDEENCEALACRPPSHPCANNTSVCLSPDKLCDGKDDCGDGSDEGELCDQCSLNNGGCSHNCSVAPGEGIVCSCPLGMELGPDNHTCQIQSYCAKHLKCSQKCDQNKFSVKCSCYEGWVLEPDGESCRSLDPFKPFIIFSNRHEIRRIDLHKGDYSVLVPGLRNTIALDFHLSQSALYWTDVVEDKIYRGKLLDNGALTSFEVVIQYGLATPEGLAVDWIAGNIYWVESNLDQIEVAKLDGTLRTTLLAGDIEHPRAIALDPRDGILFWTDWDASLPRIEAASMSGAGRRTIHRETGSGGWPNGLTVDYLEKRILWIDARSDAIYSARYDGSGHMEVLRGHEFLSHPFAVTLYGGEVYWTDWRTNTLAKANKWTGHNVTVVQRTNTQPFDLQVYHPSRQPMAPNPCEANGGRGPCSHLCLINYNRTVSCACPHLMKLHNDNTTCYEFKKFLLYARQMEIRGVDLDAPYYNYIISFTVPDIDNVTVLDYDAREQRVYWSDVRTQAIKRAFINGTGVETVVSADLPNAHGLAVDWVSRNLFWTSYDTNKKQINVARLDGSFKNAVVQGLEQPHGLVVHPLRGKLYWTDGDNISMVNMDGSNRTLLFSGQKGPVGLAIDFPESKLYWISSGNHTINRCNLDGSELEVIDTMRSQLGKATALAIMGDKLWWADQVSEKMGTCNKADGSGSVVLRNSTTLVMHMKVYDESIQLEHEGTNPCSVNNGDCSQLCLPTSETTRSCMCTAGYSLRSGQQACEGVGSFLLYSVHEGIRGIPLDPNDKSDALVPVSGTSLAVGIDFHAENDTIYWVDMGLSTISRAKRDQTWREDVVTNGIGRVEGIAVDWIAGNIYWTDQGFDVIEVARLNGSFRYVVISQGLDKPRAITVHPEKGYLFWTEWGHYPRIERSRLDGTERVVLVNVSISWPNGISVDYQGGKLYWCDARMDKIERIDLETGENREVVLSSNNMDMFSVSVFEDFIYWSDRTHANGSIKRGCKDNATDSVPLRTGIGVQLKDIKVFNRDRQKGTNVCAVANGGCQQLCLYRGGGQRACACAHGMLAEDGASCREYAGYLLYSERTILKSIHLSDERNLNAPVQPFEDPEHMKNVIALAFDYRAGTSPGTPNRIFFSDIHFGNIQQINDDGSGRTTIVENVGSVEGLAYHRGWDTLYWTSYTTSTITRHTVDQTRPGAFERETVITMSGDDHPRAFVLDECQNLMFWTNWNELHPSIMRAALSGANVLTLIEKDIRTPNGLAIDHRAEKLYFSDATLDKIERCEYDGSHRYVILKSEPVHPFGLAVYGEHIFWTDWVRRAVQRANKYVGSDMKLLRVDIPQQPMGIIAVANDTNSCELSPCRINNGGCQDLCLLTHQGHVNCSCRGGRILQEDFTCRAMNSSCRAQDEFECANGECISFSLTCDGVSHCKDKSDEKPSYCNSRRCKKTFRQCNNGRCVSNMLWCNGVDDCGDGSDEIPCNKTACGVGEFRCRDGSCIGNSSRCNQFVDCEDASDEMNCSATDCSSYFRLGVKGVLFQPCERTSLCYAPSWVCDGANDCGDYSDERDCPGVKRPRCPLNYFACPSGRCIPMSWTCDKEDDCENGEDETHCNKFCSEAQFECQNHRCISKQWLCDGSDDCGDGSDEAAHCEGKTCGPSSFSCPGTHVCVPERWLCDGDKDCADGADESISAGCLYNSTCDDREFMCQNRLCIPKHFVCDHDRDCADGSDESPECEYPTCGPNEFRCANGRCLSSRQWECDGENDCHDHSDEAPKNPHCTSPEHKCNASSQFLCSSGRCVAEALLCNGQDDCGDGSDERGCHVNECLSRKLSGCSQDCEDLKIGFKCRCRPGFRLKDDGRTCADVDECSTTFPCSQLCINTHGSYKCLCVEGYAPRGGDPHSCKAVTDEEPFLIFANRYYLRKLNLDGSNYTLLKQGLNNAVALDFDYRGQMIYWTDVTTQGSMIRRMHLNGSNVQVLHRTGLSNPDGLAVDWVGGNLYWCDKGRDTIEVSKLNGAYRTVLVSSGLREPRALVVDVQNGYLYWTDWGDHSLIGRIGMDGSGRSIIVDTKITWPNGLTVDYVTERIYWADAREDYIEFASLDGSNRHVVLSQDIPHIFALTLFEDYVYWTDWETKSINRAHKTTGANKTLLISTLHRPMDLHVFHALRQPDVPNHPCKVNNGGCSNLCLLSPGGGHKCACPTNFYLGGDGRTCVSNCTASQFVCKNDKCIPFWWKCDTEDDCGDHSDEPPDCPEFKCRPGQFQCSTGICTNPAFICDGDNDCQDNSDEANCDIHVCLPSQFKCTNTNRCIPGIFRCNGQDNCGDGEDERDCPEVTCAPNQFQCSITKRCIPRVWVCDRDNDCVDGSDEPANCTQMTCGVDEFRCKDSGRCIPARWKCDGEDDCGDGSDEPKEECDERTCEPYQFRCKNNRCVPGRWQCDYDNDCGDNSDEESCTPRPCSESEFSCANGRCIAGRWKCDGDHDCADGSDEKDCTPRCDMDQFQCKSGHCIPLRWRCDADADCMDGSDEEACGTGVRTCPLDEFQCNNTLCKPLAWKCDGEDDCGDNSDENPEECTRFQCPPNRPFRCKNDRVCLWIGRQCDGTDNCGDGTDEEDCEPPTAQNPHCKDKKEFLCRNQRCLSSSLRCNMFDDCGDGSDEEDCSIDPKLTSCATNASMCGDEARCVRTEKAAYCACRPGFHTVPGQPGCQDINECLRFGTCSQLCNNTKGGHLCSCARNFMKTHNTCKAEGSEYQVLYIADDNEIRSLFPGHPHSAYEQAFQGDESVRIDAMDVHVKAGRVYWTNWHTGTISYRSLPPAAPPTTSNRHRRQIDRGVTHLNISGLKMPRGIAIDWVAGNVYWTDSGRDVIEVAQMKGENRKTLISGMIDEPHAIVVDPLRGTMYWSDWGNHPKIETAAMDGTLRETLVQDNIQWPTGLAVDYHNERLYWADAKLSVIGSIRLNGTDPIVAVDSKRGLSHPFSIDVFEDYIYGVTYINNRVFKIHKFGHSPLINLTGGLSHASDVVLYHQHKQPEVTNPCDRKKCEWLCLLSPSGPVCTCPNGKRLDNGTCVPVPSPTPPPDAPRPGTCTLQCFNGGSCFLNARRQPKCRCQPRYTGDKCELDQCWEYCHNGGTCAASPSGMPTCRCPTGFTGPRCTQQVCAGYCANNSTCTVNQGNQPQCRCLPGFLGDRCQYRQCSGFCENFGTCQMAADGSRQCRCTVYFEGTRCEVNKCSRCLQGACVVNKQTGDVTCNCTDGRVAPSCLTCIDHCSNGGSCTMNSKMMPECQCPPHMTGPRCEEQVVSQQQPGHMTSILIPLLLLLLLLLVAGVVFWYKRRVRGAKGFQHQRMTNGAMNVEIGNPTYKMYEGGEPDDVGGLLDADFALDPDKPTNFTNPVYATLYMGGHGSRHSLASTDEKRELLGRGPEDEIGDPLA

RAP: recombinant receptor-associated protein (EMD Millipore), a functional inhibitor of LRP1
IVIG-induced Aβ efflux from inner chambers at 1 hr ([1]; 100 nM RAP plus 10mg/ml IVIG, IVIG alone 2.52±0.22, p<0.001, n=5): 1.77 ± 0.1 ng/mL | IVIG-induced Aβ efflux from inner chambers at 3 hrs ([1]; 100 nM RAP plus 10mg/ml IVIG, IVIG alone 7.61±0.91, p<0.001, n=5): 5.41 ± 0.92 ng/mL | concentration at which RAP could bind Aβ [2]: above 500 nM

LRP1 siRNA: siRNA from Sigma-Aldrich; sense 5′ -CCUAUCUUUGAGAUCCGAA-3′, antisense 5′ -UUCGGAUCUCAAAGAUAGG-3′ (chemistry not given here)
IVIG-induced Aβ efflux from inner chambers after 1 hr Aβ added [1, 5]: 1.1 ± 0.28 ng/mL | IVIG-induced Aβ efflux from inner chambers after 3 hrs Aβ added [1, 5]: 2.86 ± 0.86 ng/mL | Aβ concentration in outer chamber 1 hr after Aβ added ([1]; LRP1 knockdown by siRNA, without IVIG, 1 μM Aβ, scrambled siRNA control 0.28±0.08, p<0.05, n=3): 0.02 ± 0.004 ng/mL | Aβ concentration in outer chamber 3 hrs after Aβ added ([1]; LRP1 knockdown by siRNA, without IVIG, 1 μM Aβ, scrambled siRNA control 4.0±0.31, p<0.05, n=3): 1.17 ± 0.38 ng/mL | reduction of LRP1 at protein expression levels as compared to the scrambled siRNA controls [3]: 84.7%

Aβ1-40: beta-amyloid 1-40 peptide (gift from Eli Lilly) added to the inner chamber at 1 μM
change of TEER between treated and untreated samples [4]: little change
